The source made the active and inactive calls. No cut-off for these calls is given here.
Experiments:
[1] = system: Panel NCI-60 (60 carcinoma cell lines); assay: Anticancer activity against human NCI-60 cells assessed as cell growth inhibition incubated for 72 hrs by MTT assay; type: functional
[2] = system: MCF-10A; assay: Cytotoxicity against human MCF-10A cells assessed as cell viability incubated for 72 hrs by MTT assay; type: functional, cell-based
[3] = system: MCF7; assay: Cytotoxicity against human MCF7 cells assessed as cell viability incubated for 72 hrs by MTT assay; type: functional, cell-based
[4] = system: HepG2; assay: Cytotoxicity against human HepG2 cells assessed as cell viability incubated for 72 hrs by MTT assay; type: functional, cell-based
[5] = system: HepG2; assay: Downregulation of c-Myc level in human HepG2 cells; type: functional, cell-based
[6] = biological target: T1, Glutaminase kidney isoform, mitochondrial (Homo sapiens, UniProt O94925); assay: Inhibition of human recombinant GLS-1 by measuring glutamate production incubated for 1 hr by fluorescence based multimode plate reader method
T1 sequence (O94925 whole entry): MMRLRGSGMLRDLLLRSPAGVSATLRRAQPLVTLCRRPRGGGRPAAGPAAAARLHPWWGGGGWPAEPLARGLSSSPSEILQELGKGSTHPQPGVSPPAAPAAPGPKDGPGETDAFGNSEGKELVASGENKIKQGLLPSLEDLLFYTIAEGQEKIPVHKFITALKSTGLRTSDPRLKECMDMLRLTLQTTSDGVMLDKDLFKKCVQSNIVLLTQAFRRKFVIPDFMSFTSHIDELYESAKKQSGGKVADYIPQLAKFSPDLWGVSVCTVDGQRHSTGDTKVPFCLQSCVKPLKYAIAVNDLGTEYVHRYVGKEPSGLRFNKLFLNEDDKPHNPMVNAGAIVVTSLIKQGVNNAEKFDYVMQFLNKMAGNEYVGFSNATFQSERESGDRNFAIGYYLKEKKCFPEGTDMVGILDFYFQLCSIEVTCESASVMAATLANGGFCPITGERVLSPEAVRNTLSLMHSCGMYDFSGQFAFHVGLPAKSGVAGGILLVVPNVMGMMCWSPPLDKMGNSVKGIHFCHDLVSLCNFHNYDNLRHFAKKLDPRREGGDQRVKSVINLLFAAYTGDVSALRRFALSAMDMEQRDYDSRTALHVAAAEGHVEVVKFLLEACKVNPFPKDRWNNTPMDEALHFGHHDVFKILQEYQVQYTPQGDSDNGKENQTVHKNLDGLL

[7] = system: MIA PaCa-2; assay: Cytotoxicity against human MIA PaCa-2 cells overexpressing GLS-1; type: functional, cell-based
[8] = system: A-375; assay: Cytotoxicity against human A-375 cells overexpressing GLS-1; type: functional, cell-based
[9] = system: HepG2; assay: Inhibition of cell invasion in human HepG2 cells assessed as reduction in MMP-2 level at 2.5 uM after 72 hrs by densitometric analysis; type: functional; design: scale not given: the % may be the effect or the level left
[10] = system: HepG2; assay: Downregulation of GSH level in human HepG2 cells; type: functional, cell-based
[11] = system: HepG2; assay: Downregulation of spermidine level in human HepG2 cells; type: functional, cell-based
[12] = system: HepG2; assay: Inhibition of cell invasion in human HepG2 cells assessed as reduction in MMP-9 level at 2.5 uM after 72 hrs by densitometric analysis; type: functional; design: scale not given: the % may be the effect or the level left
[13] = system: HepG2; assay: Inhibition of cell invasion in human HepG2 cells assessed as reduction in MMP-9 level at 2.5 uM after 8 hrs by densitometric analysis; type: functional; design: scale not given: the % may be the effect or the level left
[14] = system: HepG2; assay: Inhibition of cell invasion in human HepG2 cells assessed as reduction in MMP-2 level at 2.5 uM after 8 hrs by densitometric analysis; type: functional; design: scale not given: the % may be the effect or the level left
[15] = system: HepG2; assay: Induction of cell cycle arrest in human HepG2 cells assessed as decrease in cyclin-B1 expression at 1.5 uM measured after 8 to 24 hrs by Western blotting analysis relative to control; type: functional; design: scale not given: the % may be the effect or the level left; conditions: time 8-24 hrs
[16] = system: HepG2; assay: Downregulation of polyamine pathway in human HepG2 cells assessed as increase in intracellular ROS production; type: functional, cell-based
[17] = Cytotoxicity against human U-87 MG cells overexpressing GLS-1; type: functional, cell-based, U-87MG ATCC
[18] = system: A549; assay: Cytotoxicity against human A549 cells overexpressing GLS-1; type: functional, cell-based
[19] = system: HepG2; assay: Induction of cell cycle arrest in human HepG2 cells assessed as decrease in cyclin-B1 expression at 1.5 uM measured after 72 hrs by Western blotting analysis relative to control; type: functional; design: scale not given: the % may be the effect or the level left
[20] = system: SAOS-2; assay: Cytotoxicity against human SAOS-2 cells overexpressing GLS-1; type: functional, cell-based
[21] = system: HepG2; assay: Anticlonogenic activity against human HepG2 cells assessed as reduction of colony formation at 0.5 uM incubated for 14 days by crystal violet staining method; type: functional; design: scale not given: the % may be the effect or the level left; conditions: time 14 day
[22] = system: HepG2; assay: Cytotoxicity against human HepG2 cells assessed as cell viability incubated for 72 hrs in presence of alpha-ketoglutarate by MTT assay; type: functional, cell-based; conditions: HepG2, 72 h
[23] = system: HepG2; assay: Upregulation of stearoyl-carnitine level in human HepG2 cells; type: functional, cell-based
[24] = system: HepG2; assay: Inhibition of cell migration in human HepG2 cells assessed as reduction in wound closure at 1.5 uM measured after 24 to 48 hrs by wound healing assay based contrat-phase microscopic analysis; type: functional; conditions: time 24-48 hrs
[25] = biological target: T2, Glutaminase liver isoform, mitochondrial (Homo sapiens, UniProt Q9UI32); assay: Inhibition of human recombinant GLS-2 by measuring glutamate production incubated for 1 hr by fluorescence based multimode plate reader method
T2 sequence (Q9UI32 whole entry): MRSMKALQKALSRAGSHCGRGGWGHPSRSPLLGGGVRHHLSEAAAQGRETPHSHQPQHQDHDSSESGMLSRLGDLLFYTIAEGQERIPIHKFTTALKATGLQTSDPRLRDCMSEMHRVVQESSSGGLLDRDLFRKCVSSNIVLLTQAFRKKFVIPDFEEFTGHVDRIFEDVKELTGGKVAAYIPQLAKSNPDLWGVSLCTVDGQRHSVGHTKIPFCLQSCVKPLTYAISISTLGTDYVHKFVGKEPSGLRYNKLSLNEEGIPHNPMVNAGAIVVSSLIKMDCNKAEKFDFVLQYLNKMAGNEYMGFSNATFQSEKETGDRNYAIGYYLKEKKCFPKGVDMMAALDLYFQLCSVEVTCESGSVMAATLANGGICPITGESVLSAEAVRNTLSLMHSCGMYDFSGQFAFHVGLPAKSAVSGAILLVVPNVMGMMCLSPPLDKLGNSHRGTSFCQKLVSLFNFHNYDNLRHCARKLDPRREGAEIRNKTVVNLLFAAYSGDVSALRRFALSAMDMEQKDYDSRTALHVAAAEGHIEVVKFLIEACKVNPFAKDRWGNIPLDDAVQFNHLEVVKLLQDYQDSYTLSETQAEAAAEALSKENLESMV

## Cn1cc(-c2csc(-c3cn(CCCCN4CCCCC4)c4ccc(F)cc34)n2)c2cccnc21
[1]; read-out: GI50
  GI50: 1.46 µM
[1]; read-out: pGI50 (converted)
  GI50: 16.2 µM

## COc1ccc2c(c1)c(-c1nc(-c3cn(C)c4ncccc34)cs1)cn2CCCCN1CCOCC1
[1]; read-out: GI50
  GI50: 0.02 µM
[1]; read-out: pGI50 (converted)
  GI50: 12 µM
[2]
  Activity: Active

## COc1ccc2c(c1)c(-c1nc(-c3c[nH]c4ncccc34)cs1)cn2CCN1CCCCC1
[3]
  Activity: Active
[4]
  Activity: Active

## OCCn1cc(-c2nc(-c3c[nH]c4ncccc34)cs2)c2cc(Br)ccc21
[3]
  Activity: Active
[4]
  Activity: Active

## COc1ccc2c(c1)c(-c1nc(-c3cn(C)c4ncccc34)cs1)cn2CCN1CCCCC1
[3]
  Activity: Active
[2]
  Activity: Active

## Cn1cc(-c2csc(-c3cn(CCCCN4CCOCC4)c4ccc(F)cc34)n2)c2cccnc21
[2]
  Activity: Active

## Cn1cc(-c2csc(-c3cn(CCO)c4ccccc34)n2)c2cccnc21
[3]
  Activity: Active
[4]
  Activity: Active

## Cn1cc(-c2csc(-c3cn(CCN4CCOCC4)c4ccc(F)cc34)n2)c2cccnc21
[3]
  Activity: Active
[4]
  Activity: Active
[1]; read-out: GI50
  GI50: 1.52 µM
[1]; read-out: pGI50 (converted)
  GI50: 5.62 µM

## COc1ccc2c(c1)c(-c1nc(-c3cn(C)c4ncccc34)cs1)cn2CCCCN1CCCCC1
[3]
  Activity: Active
[4]
  Activity: Active
[1]; read-out: GI50
  GI50: 1.07 µM
[1]; read-out: pGI50 (converted)
  GI50: 1.91 µM

## Fc1ccc2c(c1)c(-c1nc(-c3c[nH]c4ncccc34)cs1)cn2CCCN1CCCCC1
[3]
  Activity: Active
[1]; read-out: GI50
  GI50: 1.28 µM
[1]; read-out: pGI50 (converted)
  GI50: 3.72 µM
[2]
  Activity: Active

## Cn1cc(-c2csc(-c3cn(CCCCN4CCOCC4)c4ccccc34)n2)c2cccnc21
[2]
  Activity: Active

## COc1ccc2c(c1)c(-c1nc(-c3c[nH]c4ncccc34)cs1)cn2CCCN1CCCCC1
[3]
  Activity: Active
[1]; read-out: GI50
  GI50: 1.19 µM
[1]; read-out: pGI50 (converted)
  GI50: 3.31 µM
[2]
  Activity: Active

## COc1ccc2c(c1)c(-c1nc(-c3c[nH]c4ncccc34)cs1)cn2CCCCN1CCOCC1
[1]; read-out: GI50
  GI50: 0.22 µM
[1]; read-out: pGI50 (converted)
  GI50: 5.25 µM

## COc1ccc2c(c1)c(-c1nc(-c3c[nH]c4ncccc34)cs1)cn2CCO
[3]
  Activity: Active
[4]
  Activity: Active

## c1cnc2[nH]cc(-c3csc(-c4cn(CCCN5CCCCC5)c5ccccc45)n3)c2c1
[3]
  Activity: Active
[1]; read-out: GI50
  GI50: 1.1 µM
[1]; read-out: pGI50 (converted)
  GI50: 2.34 µM
[2]
  Activity: Active

## COc1ccc2c(c1)c(-c1nc(-c3c[nH]c4ncccc34)cs1)cn2CCCN1CCOCC1
[3]
  Activity: Active
[4]
  Activity: Active
[1]; read-out: GI50
  GI50: 0.48 µM
[1]; read-out: pGI50 (converted)
  GI50: 4.07 µM

## Cn1cc(-c2csc(-c3cn(CCO)c4ccc(Br)cc34)n2)c2cccnc21
[3]
  Activity: Active
[4]
  Activity: Active

## c1cnc2[nH]cc(-c3csc(-c4cn(CCCCN5CCCCC5)c5ccccc45)n3)c2c1
[3]
  Activity: Active
[4]
  Activity: Active

## Fc1ccc2c(c1)c(-c1nc(-c3c[nH]c4ncccc34)cs1)cn2CCCN1CCOCC1
[2]
  Activity: Active

## COc1ccc2c(c1)c(-c1nc(-c3c[nH]c4ncccc34)cs1)cn2CCCCN1CCCCC1
[1]; read-out: GI50
  GI50: 1.18 µM
[1]; read-out: pGI50 (converted)
  GI50: 1.95 µM

## Br.Fc1ccc2c(c1)c(-c1nc(-c3c[nH]c4ncccc34)cs1)cn2CCCCN1CCOCC1
[5]
  Activity: Active
[6]
  EC50: 3.96 µM
[7]
  EC50: 6.98 µM
[8]
  EC50: 5.84 µM
[9]
  Activity: 80%
[10]
  Activity: Active
[11]
  Activity: Active
[12]
  Activity: 75%
[13]
  Activity: 50%
[14]
  Activity: 20%
[15]
  Activity: 50%
[16]
  Activity: Active
[17]
  EC50: 3.63 µM
[18]
  EC50: 8.47 µM
[19]
  Activity: 75%
[20]
  EC50: 4.85 µM
[3]; MCF7, 72 h
  EC50: 23.1 µM
[21]
  Activity: <=70%
[22]
  EC50: 27.2 µM
[23]
  Activity: Active
[24]
  Activity: Active
[4]; HepG2, 72 h
  EC50: 3.25 µM
[25]
  EC50: 12.9 µM
[2]
  EC50: 29.1 µM
